# Experiments:
# Assay type in all cases: cell-based, murine
# tyrosinase = experiment: RT-qPCR of tyrosinase mRNA in α–MSH/IBMX stimulated B16F10 cells
# Method: (§1) 2.17. RNA Extraction and Quantitative Real Time-Polymerase Chain Reaction (RT-qPCR)
# (§2) B16F10 cells were extracted using GeneAll RiboEx Total RNA extraction reagent (GeneAll Biotechnology, Seoul, Korea) and transferred to tubes, added with chloroform (0.1 mL), shaken vigorously for 30 sec, and centrifuged for 15 min at 12,000× g. Aqueous phases were transferred to fresh tubes, and equal volumes of isopropanol were added. Samples were then incubated at 4 °C for 10 min and centrifuged for 15 min at 12,000× g at 4 °C. Supernatants were discarded, and RNA pellets were washed once with 0.8 mL of 70% ethanol and by vortexing briefly and centrifuged for 5 min at 7500× g at 4 °C. Pellets were dried at 56 °C for 10–15 min and dissolved in 30 µL of diethyl pyrocarbonate (DEPC)-treated water. The levels of RNA were determined by a Nanodrop spectrophotometer (NANO-200, Allsheng, Hangzhou, China). Complementary DNA (cDNA) was synthesized from total RNA (2 µg) using SuPrime Script RT Premix (with random hexamer) cDNA Synthesis Kit (GeNet Bio, Daejeon, Korea). […]
# (§3) To further investigate the anti-melanogenesis mechanism of analog 3, we examined its effect on the expressions of melanogenesis-associated genes and levels of melanogenesis-associated proteins in B16F10 cells. […] Nuclear levels of MITF protein were measured by Western blotting in α–MSH/IBMX-stimulated B16F10 cells. […]
# MITF = experiment: Western blot of nuclear MITF in α–MSH/IBMX stimulated B16F10 cells; details: 5, 10, 20 µM
# Method: 2.15. Extraction of Cytosolic and Nuclear Proteins from Cells
# Western blotting was used to determine tyrosinase and MITF protein levels. Briefly, B16F10 cells were seeded in 60 mm culture dishes in the presence or absence of α–MSH (1 µM) plus IBMX (200 µM) with or without analog 3 (5, 10, and 20 µM for final concentrations) for 24 h, washed twice with ice-cold PBS and centrifuged for 10 min at 12,000× g. Cell pellets were suspended in 10 mM Tris (pH 8.0) containing 0.1% NP-40, 1 mM DTT, 1.5 mM MgCl2, 1 mM PMSF, and protease inhibitors (GenDEPOT, Barker, TX, USA), incubated on ice for 15 min, and centrifuged for 10 min at 12,000× g at 4 °C. Supernatants were used as cytosolic fractions. […] The protein concentrations were determined using a bicinchoninic acid (BCA)™ assay kit (Pierce, Rockford, IL, USA). […]
# Lysed protein samples from cells were boiled for 10 min in sample-loading buffer (0.1% bromophenol blue, 25% glycerol, 60 mM Tris-HCl (pH 6.8), 2% SDS, and 0.5% β-mercaptoethanol) at a volume ratio of 1:4. […] Immunoreactive proteins were detected using the enhanced chemiluminescence (ECL) detection reagent in the SuperSignal® West Pico Chemiluminescent Substrate kit (Advansta, San Jose, CA, USA). Western blot bands were visualized using a Davinch-Chemi imager™ (Davinch-K, Seoul, Korea), and quantification was conducted by densitometric analysis using CS analyzer software ver. […]
# TRP-1 = experiment: RT-qPCR of TRP-1 mRNA in α–MSH/IBMX stimulated B16F10 cells
# Method: as §1, §2, §3
# B16F10 cells = experiment: Melanin content analysis in α–MSH plus IBMX stimulated B16F10 cells
# Method: 2.10. Melanin Content Analysis Melanin content assays were performed to determine the effects of analog 3 on cellular melanin formation, as previously described with minor modification. […] Briefly, cultured B16F10 cells were seeded in 6-well culture plates at 1 × 10^4 cells/well and incubated for 12 h under culture conditions to allow them to adhere to well bottoms. […] Cells were then washed twice with PBS and detached from wells by incubation with Trypsin/EDTA. After centrifugation, detached cell pellets were dissolved in 1N–NaOH solution (100 µL), incubated for 1 h at 60 °C, and mixed to solubilize melanin released by cells. The ability of analog 3 to inhibit melanin production was determined by measuring well optical densities (ODs) at 405 nm using a microplate reader (VersaMax®, Molecular Devices, Sunnyvale, CA, USA). Melanin contents were calculated by dividing the ODs of samples by the control OD. Experiments were conducted independently 3 times. […] Thus, B16F10 cells were treated with analog 3 (0, 5, 10, or 20 µM) for 1 h and then stimulated with α–MSH (1 µM) plus IBMX (200 µM) for 72 h. Melanin contents were assessed by measuring optical densities at 405 nm.
structure (smiles),measurement,setting,value
"O=C1/C(=C/c2ccc(O)cc2O)SC(=S)N1C1CCCCC1 [Analog 3, (Z)-3-Cyclohexyl-5-(2,4-dihydroxybenzylidene)-2-thioxothiazolidin-4-one]",effect on expression of tyrosinase (mRNA),tyrosinase; α–MSH/IBMX stimulated,significantly and concentration-dependently decreased
same,tyrosinase gene expression,"tyrosinase; α–MSH/IBMX stimulated (3.3-fold), 5 µM",2.6 fold
same,effect on α–MSH/IBMX-induced increases in MITF levels (nuclear protein),MITF,significantly and concentration-dependently suppressed
same,effect on expression of TRP-1 (mRNA),TRP-1; α–MSH/IBMX stimulated,significantly and concentration-dependently decreased
same,TRP-1 gene expression,"TRP-1; α–MSH/IBMX stimulated (2.2-fold), 5 µM",1.3 fold
same,effect on α–MSH/IBMX-induced melanin contents at 5 µM,"B16F10 cells; 5 µM, compared with kojic acid 20 µM",greater effect than kojic acid at 20 µM
same,effect on α–MSH/IBMX-induced melanin contents at 20 µM,"B16F10 cells; 20 µM, 72 h",to the non-treated control level
same,effect on α–MSH/IBMX-induced melanin content increases,"B16F10 cells; 5, 10, 20 µM, 72 h",significantly and dose-dependently reduced

# Reference: publication PMC9598926, “Design and Synthesis of (Z)-5-(Substituted benzylidene)-3-cyclohexyl-2-thioxothiazolidin-4-one Analogues as Anti-Tyrosinase and Antioxidant Compounds: In Vitro and In Silico Insights” (Antioxidants, 2022)
